Active and inactive are the calls of the source. The calls are words filed in the database; no cut-off is given here. Peptide text beside a SMILES is read from it.
How the values were obtained:
[1] = Binding affinity to MTDH /His-SND1 (unknown origin) expressed in Escherichia coli BL21(DE3) assessed as dissociation constant by fluorescence polarization assay; set-up: species or system Homo sapiens
[2] = Drug uptake in human MDA-MB-231 cells assessed as increase in cell penetration at 10 uM incubated for 12 hrs by flow cytometry method; type: ADME, cell-based; conditions: mda-mb-231, 12 h
[3] = Drug uptake in human MDA-MB-231 cells assessed as increase in colocalization at 10 uM by confocal microscopy; type: ADME, cell-based; conditions: mda-mb-231, 10 µM
Homo sapiens = species: Homo sapiens; assay: Inhibition of GST-tagged MTDH (364 ro 582 residues)/His-tagged SND1 (16 to 339 residues) (unknown origin) interaction measured after 12 hrs by pull down assay
MDA-MB-231 [4] = assay: Inhibition of GST-tagged MTDH (364 ro 582 residues)/His-tagged SND1 (16 to 339 residues) interaction in human MDA-MB-231 cells measured after 12 hrs by co-immunoprecipitation assay; type: cell-based
MDA-MB-231 [5] = assay: Cytotoxicity against human MDA-MB-231 cells assessed as reduction in cell viability at 6.25 to 200 uM incubated for 72 hrs by CCK8 assay; type: functional, cell-based; conditions: dose 6.25-200 µM
MDA-MB-468 [6] = assay: Cytotoxicity against human MDA-MB-468 cells assessed as reduction in cell viability at 6.25 to 200 uM incubated for 72 hrs by CCK8 assay; type: functional, cell-based; conditions: dose 6.25-200 µM
MDA-MB-231 [7] = assay: Cytotoxicity against human MDA-MB-231 cells assessed as reduction in cell viability incubated for 72 hrs by CCK8 assay; type: functional, cell-based
MDA-MB-468 [8] = assay: Cytotoxicity against human MDA-MB-468 cells assessed as reduction in cell viability incubated for 72 hrs by CCK8 assay; type: functional, cell-based
MDA-MB-231 [9] = assay: Cytotoxicity against human MDA-MB-231 cells assessed as reduction in cell viability at 100 uM incubated for 72 hrs by CCK8 assay; type: functional
MCF-10A = assay: Cytotoxicity against human MCF-10A cells assessed as reduction in cell viability at 6.25 to 200 uM incubated for 72 hrs by CCK8 assay; type: toxicity, cell-based; conditions: dose 6.25-200 µM
[10] = Toxicity in mouse RBC assessed as induction of hemolysis at 200 uM measured after 1 hr by microplate reader assay; type: cell-based; conditions: erythrocyte
[11] = Stability of the compound in mouse serum measured after 3 to 7 days by HPLC analysis; type: ADME, cell-free; conditions: time 3-7 day
MDA-MB-231 [12] = assay: Cell cycle arrest in human MDA-MB-231 cells assessed as accumulation at G0/G1 phase at 50 uM measured after 48 hrs by flow cytometric analysis flow cytometry analysis (reference value: 58.28 %); type: functional
MDA-MB-231 [13] = assay: Cell cycle arrest in human MDA-MB-231 cells assessed as accumulation at S phase at 50 uM measured after 48 hrs by flow cytometric analysis flow cytometry analysis (reference value: 25.88%); type: functional
MDA-MB-231 [14] = assay: Cell cycle arrest in human MDA-MB-231 cells assessed as accumulation at G2/M phase at 50 uM measured after 48 hrs by flow cytometric analysis flow cytometry analysis (reference value: 15.84 %); type: functional
MDA-MB-231 [15] = assay: Cell cycle arrest in human MDA-MB-231 cells assessed as accumulation at G0/G1 phase at 100 uM measured after 48 hrs by propidium iodide based flow cytometry analysis (reference value: 57.81 %); type: functional
MDA-MB-231 [16] = assay: Cell cycle arrest in human MDA-MB-231 cells assessed as accumulation at S phase at 100 uM measured after 48 hrs by flow cytometric analysis flow cytometry analysis (reference value: 25.81%); type: functional
MDA-MB-231 [17] = assay: Cell cycle arrest in human MDA-MB-231 cells assessed as accumulation at G2/M phase at 100 uM measured after 48 hrs by flow cytometric analysis flow cytometry analysis (reference value: 16.38 %); type: functional
MDA-MB-231 [18] = assay: Inhibition of cell migration in human MDA-MB-231 cells measured after 24 to 48 hrs by wound healing assay; type: functional, cell-based; conditions: time 24-48 hrs
MDA-MB-231 [19] = assay: Antiproliferative activity against human MDA-MB-231 cells assessed as growth inhibition at 100 uM in presence of paclitaxel; type: functional, cell-based

Drug uptake [2] | Drug uptake [3] | Compound | Kd [1] [nM] | Activity (MDA-MB-231 [12]) [%] | Activity (MDA-MB-231 [13]) [%] | Activity (MDA-MB-231 [14]) [%] | Activity (MDA-MB-231 [15]) [%] | Activity (MDA-MB-231 [16]) [%] | Activity (MDA-MB-231 [17]) [%] | also measured
Active | Active | CC(C)[C@H](NC(=O)[C@H](Cc1c[nH]c2ccccc12)NC(=O)[C@H](CC(N)=O)NC(=O)CNC(=O)[C@H](Cc1c[nH]c2ccccc12)NC(=O)[C@H](CCC(=O)O)NC(=O)[C@H](CCC(=O)O)NC(=O)[C@@H]1CNC(=O)[C@@H](NC(=O)[C@H](Cc2c[nH]c3ccccc23)NC(=O)[C@@H](N)CC(=O)O)CC(=O)N[C@@H](C)C(=O)N2CCC[C@H]2C(=O)N1)C(=O)N[C@@H](CC(=O)O)C(=O)N[C@@H](CCC(=O)O)C(N)=O | 74.1 | 69.94 | 18.5 | 11.55 | 81.56 | 8.32 | 10.12 | inhibition (Homo sapiens): Active; inhibition (MDA-MB-231 [4]): Active; Activity (MDA-MB-231 [5]): Active; Activity (MDA-MB-468 [6]): Active; Activity (MDA-MB-231 [7]): Active; Activity (MDA-MB-468 [8]): Active; Activity (MDA-MB-231 [9]): 60%; Activity (MCF-10A): Non-Toxic; Activity [10]: Non-Toxic; Stability [11]: Stable; inhibition (MDA-MB-231 [18]): Active; Activity (MDA-MB-231 [19]): Active
Active | Active | CC(C)[C@H](NC(=O)[C@H](Cc1c[nH]c2ccccc12)NC(=O)[C@H](CC(N)=O)NC(=O)CNC(=O)[C@H](Cc1c[nH]c2ccccc12)NC(=O)[C@H](CCC(=O)O)NC(=O)[C@H](CCC(=O)O)NC(=O)[C@H](C)NC(=O)[C@@H]1CCCN1C(=O)[C@H](C)NC(=O)[C@H](CC(N)=O)NC(=O)[C@H](Cc1c[nH]c2ccccc12)NC(=O)[C@@H](N)CC(=O)O)C(=O)N[C@@H](CC(=O)O)C(=O)N[C@@H](CCC(=O)O)C(=O)O (H-DWNAPAEEWGNWVDE-OH) | 56.5 | 60.42 | 22.86 | 16.7 | 61.79 | 22.66 | 15.55 | 

Reference: ChEMBL document CHEMBL5113517, “Structure-Based Design, Optimization, and Evaluation of Potent Stabilized Peptide Inhibitors Disrupting MTDH and SND1 Interaction” (J Med Chem, 2022)
